Experimental data published in ChEMBL document CHEMBL2169886 (J Med Chem, 2012).

Legend:
clinical [1] = conditions: human, plasma
clinical [2] = conditions: human, in vivo, po, 30 mg
Rattus norvegicus = species on record: Rattus norvegicus; conditions: in vivo, po, BLD = below limit of detection
in vivo [3] = conditions: rat
in vivo [4] = conditions: rat, po
physchem = conditions: buffer, pH 7.4

Compound	AUC (clinical [1]) [ng·h/mL]	Cmax at 1.2 h (clinical [2]) [ng/mL]	F (Rattus norvegicus)	Vd (in vivo [3]) [L/kg]	bioavailability (in vivo [4]) [%]	logD (physchem)
N[C@@H]1CCN(c2cnc3nnn(Cc4ccc5ncccc5c4)c3n2)C1	–	–	BLD	3.6	–	–
Nc1cnc2nnn(Cc3ccc4ncccc4c3)c2n1	–	–	–	0.95	75	1.23

Continued, values first:

AUC (clinical [1]) [ng·h/mL]	Cmax at 1.2 h (clinical [2]) [ng/mL]	F (Rattus norvegicus)	Vd (in vivo [3]) [L/kg]	bioavailability (in vivo [4]) [%]	logD (physchem)	Compound
810	240	–	–	–	–	CS(=O)(=O)O.OCCn1cc(-c2cnc3nnn(Cc4ccc5ncccc5c4)c3n2)cn1
–	–	BLD	27	–	–	c1cnc2ccc(Cn3nnc4ncc(-c5cnn(C6CCNCC6)c5)nc43)cc2c1
–	–	–	1.6	71	1.38	OCCn1cc(-c2cnc3nnn(Cc4ccc5ncccc5c4)c3n2)cn1 [PF-04217903]
